Results from publication PMC8744835, “Sterically Hindered Quaternary Phosphonium Salts (QPSs): Antimicrobial Activity and Hemolytic and Cytotoxic Properties” (International Journal of Molecular Sciences, 2021).

How the values were obtained:
[1] = tested on: human erythrocytes; test: Hemolytic activity; format: cell-based; settings: red blood cells
From the text: An important characteristic when assessing the biological activity of new chemical compounds is their cytotoxic effect on eukaryotic cells. The ability of an investigated compound to cause the destruction of human erythrocytes illustrates its toxic effect on the internal environment. The hemolysis assay is a simple screening test that can help in the study of cytotoxicity in more complex models. Cell lines obtained from various human organs and tissues that allow for adequate estimation of the effects of new potential drugs on cell metabolism can serve as experimental models.
The hemolytic activity of the QPSs was estimated by comparing the optical density of a solution containing the test compound with that of blood at 100% hemolysis. The experiments were carried out as previously described.

[2] = tested on: Staphylococcus aureus ATCC 6538P FDA 209P; test: Antimicrobial activity, serial dilution technique in Mueller–Hinton Broth 2; format: cell-based; settings: average of three ± SD, - means non-active; for MBC: read-out: Minimum Bactericidal and Fungicidal Concentration (MBC, MFC), Sa
In short: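 Using a broth serial dilution method in Mueller–Hinton Broth 2, S. aureus ATCC 6538P FDA 209P (3.0 × 10^5 cfu/mL) was exposed to compounds at 37 °C and observed daily over 5 days. MIC was the lowest concentration preventing growth; bacteriostatic absence of growth was also noted, with three replicate experiments.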

[3] = tested on: Chang liver cell line; test: Cytotoxicity assay (Cytell Cell Imaging, DAPI/propidium iodide); format: cell-based, human; settings: for IC50 (concentration that causes the death of 50% of the cells): Chang liver cells; for IC50: Homo sapiens, Chang liver, read-out: IC50 (concentration that causes the death of 50% of the cells), Chang liver cells
[4] = tested on: Enterococcus faecalis ATCC 2921; test: Antimicrobial activity, serial dilution technique in Mueller–Hinton Broth 2; format: cell-based; settings: Enterococcus faecalis, ATCC2921, Ef, average of three ± SD, - means non-active
In short: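 Antibacterial activity against Enterococcus faecalis ATCC 2921 was assessed by serial dilution in Mueller–Hinton Broth 2 with a bacterial load of 3.0 × 10^5 cfu/mL. Cultures were incubated at 37 °C, with growth recorded every 24 h for 5 days, and the experiment was performed three times.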

[5] = tested on: Escherichia coli ATCC 25922; test: as above; format: cell-based; settings: Escherichia coli, ATCC25922, Ec; average of three ± SD; - means non-active; read-out: Minimum Inhibitory Concentration (MIC), Ec
In short: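 Growth inhibition is scored in Mueller–Hinton Broth 2 dilution series seeded with 3.0 × 10^5 cfu/mL and held at 37 °C for up to 5 days. Values reported are MICs, the lowest concentration without growth.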

[6] = tested on: Bacillus cereus ATCC 10702 NCTC 8035; test: as above; format: cell-based; settings: Bacillus cereus, Bc; average of three ± SD; - means non-active; read-out: Minimum Inhibitory Concentration (MIC), Bc
In short: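 Compounds were serially diluted in Mueller–Hinton Broth 2 and inoculated with the Gram-positive strain Bacillus cereus ATCC 10702 NCTC 8035 at 3.0 × 10^5 cfu/mL, then incubated at 37 °C. Observations were taken every 24 h over 5 days in three repeat experiments. The MIC was the lowest concentration that stopped growth, with bacteriostatic absence of growth also noted.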

[7] = tested on: Escherichia coli ATCC 25922; test: as above; format: cell-based; settings: Escherichia coli, ATCC25922, Ec; average of three ± SD; - means non-active; read-out: Minimum Bactericidal and Fungicidal Concentration (MBC, MFC), Ec
[8] = tested on: methicillin-resistant S. aureus MRSA-2; test: as above; format: cell-based, Staphylococcus aureus; settings: Staphylococcus aureus, MRSA, MRSA-2 (resistant to beta-lactams); - means non-active; read-out: Minimum Inhibitory Concentration (MIC), MRSA-2
In short: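 Antimicrobial activity against methicillin-susceptible Staphylococcus aureus MRSA-2, a beta-lactam-resistant clinical isolate from a sinusitis patient at the Republican Clinical Hospital (Kazan), was assessed by serial dilution in Mueller–Hinton Broth 2. The inoculum was 3.0 × 10^5 cfu/mL. Cultures were incubated at 37 °C and read every 24 h for 5 days, in three repeat experiments.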

[9] = tested on: methicillin-resistant S. aureus MRSA-1; test: as above; format: cell-based, Staphylococcus aureus; settings: MRSA-1 (resistant to fluoroquinolones and beta-lactams); - means non-active
In short: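 Antimicrobial activity against methicillin-susceptible Staphylococcus aureus MRSA-1, a hospital isolate from a chronic tonsillitis patient that is resistant to fluoroquinolones and beta-lactams, was determined by serial dilution in Mueller–Hinton Broth 2. The bacterial load was 3.0 × 10^5 cfu/mL, incubation was at 37 °C, and growth was recorded every 24 h for 5 days.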

## CCCCCCC[P+](C(C)(C)C)(C(C)(C)C)C(C)(C)C [Compound 7b]
[1]
  HC50 (concentration that causes 50% hemolysis of erythrocytes): > 125 µg/mL
[2]; Staphylococcus aureus, Sa
  MBC: 62.5 µg/mL
[3]
  IC50 (concentration that causes the death of 50% of the cells): > 100 µg/mL

## CCC[P+](C(C)(C)C)(C(C)(C)C)C(C)(C)C [Compound 3a]
[1]
  HC50 (concentration that causes 50% hemolysis of erythrocytes): > 125 µg/mL
[3]
  IC50: > 100 µg/mL

## CC(C)(C)[P+](C)(C(C)(C)C)C(C)(C)C [Compound 1a]
[1]
  HC50 (concentration that causes 50% hemolysis of erythrocytes): > 125 µg/mL
[3]
  IC50: > 100 µg/mL

## CCCCCCCC[P+](C(C)(C)C)(C(C)(C)C)C(C)(C)C [Compound 8a]
[1]
  HC50 (concentration that causes 50% hemolysis of erythrocytes): > 125 µg/mL
[4]; read-out: Minimum Inhibitory Concentration (MIC), Ef
  MIC: 62.5 µg/mL
[5]
  MIC: 125 µg/mL
[2]; Staphylococcus aureus, Sa
  MBC: 62.5 µg/mL
[6]
  MIC: 31.3 µg/mL
[7]
  MBC: 125 µg/mL
[8]
  MIC: 31.3 µg/mL
[3]
  IC50: > 100 µg/mL

## CCCCC[P+](C(C)(C)C)(C(C)(C)C)C(C)(C)C [Compound 5b]
[1]
  HC50 (concentration that causes 50% hemolysis of erythrocytes): > 125 µg/mL
[3]
  IC50: > 100 µg/mL

## CCCCCCCC[P+](C(C)(C)C)(C(C)(C)C)C(C)(C)C [Compound 8b]
[1]
  HC50 (concentration that causes 50% hemolysis of erythrocytes): > 125 µg/mL
[4]; read-out: Minimum Bactericidal and Fungicidal Concentration (MBC, MFC), Ef
  MBC: 125 µg/mL
[2]
  Minimum Bactericidal and Fungicidal Concentration (MBC, MFC), Sa: 31.3 µg/mL
  Minimum Inhibitory Concentration (MIC), Sa: 31.3 µg/mL
[9]
  Minimum Inhibitory Concentration (MIC), MRSA-1: 31.3 µg/mL
[3]
  IC50 (concentration that causes the death of 50% of the cells): > 100 µg/mL

## CCCCCC[P+](C(C)(C)C)(C(C)(C)C)C(C)(C)C [Compound 6a]
[1]
  HC50 (concentration that causes 50% hemolysis of erythrocytes): > 125 µg/mL
[2]; Staphylococcus aureus, Sa, read-out: Minimum Inhibitory Concentration (MIC), Sa
  MIC: 125 ± 11 µg/mL
[3]
  IC50: > 100 µg/mL
